For test [1], the target named is T1, SARS-COV-2 RdRp (Severe acute respiratory syndrome coronavirus 2, UniProt P0DTD1). As to the kind of experiment: Primer extension to determine if m1A is incorporated onto RNA by RdRp via m1ATP (PAGE). The note with it: CTP, 37° C. The class given is biochemical. How it is done: Determine if the m1A or m3C modification could be incorporated onto RNA or DNA by a polymerase via m1ATP or m3CTP, respectively: The SARS-COV-2 RdRp with m1ATP is used as the example. Sources of materials used in the experiment can be found in reference [Apostle et al Preprints doi:10.20944/preprints202311.1268.v1]. RNA duplex [F038]-[F039] (SEQ ID NOs: 12 and 13, FIG. 2) was prepared by annealing the two RNAs using the following procedure. The solution of RNAs [F038] (SEQ ID NO: 12, 20 μM, all concentrations are final) and [F039] (SEQ ID NO: 13, 20 μM) in Tris-HCl (10 mM), and KCI (100 mM) was heated at 94° C. for 5 min. The solution was then cooled to RT slowly giving the [F038]-[F039] (SEQ ID NOs: 12 and 13) duplex. […] To another tube containing only the RNA duplex in 10 μL nuclease free water ([…], corresponding to the experiment of lane 1 in FIG. 2) were also added the EDTA and loading dye solutions (same quantities as above, final volume 30 μL). […]
The results of the primer extension reaction is shown in FIG. 2, gel image for determining if m1A could be incorporated onto RNA by SARS-COV-2 RdRp via m1ATP. […] The reaction products were analyzed with PAGE. […]

In test [2] the target is T1, SARS-COV-2 RdRp. In kind it is biochemical.

The structures appear in SMILES notation. “Also recorded” adds a separate entry of the source.

Take `C[n+]1cnc2c(ncn2[C@@H]2O[C@H](COP(=O)(O)OP(=O)(O)OP(=O)(O)O)C(O)C2O)c1N` (stereo partly drawn) [m1ATP]: the “inhibition of RdRp by m1ATP” value in test [1] (m1ATP only for 15 min, then ATP, GTP and UTP) is listed as “does not inhibit RdRp”. Further, in test [1] (m1ATP, GTP, UTP 0.5 mM each, no ATP, 2 h), the “incorporation of m1A into RNA by RdRp via m1ATP” value is on record as “m1A can be incorporated into RNA by SARS-COV-2 RdRp via m1ATP; also recorded: m1A could indeed be efficiently incorporated into RNA by SARS-COV-2 RdRp; also recorded: m1A can be incorporated onto RNA”.
As for `C[n+]1c(N)ccn([C@@H]2O[C@H](CO)C(O)C2O)c1=O` (stereo partly drawn) [m3C, N3-methylcytidine], the “effect of the modification in template RNA on RdRp catalytic activity” value in test [2] is “has minimal impact; also recorded: can be tolerated by the RdRp; also recorded: has little effect on the RdRp”.

The values are drawn from patent US20240336647A1, “NUCLEOSIDE ANALOGS AND THERAPEUTIC USE THEREOF” (priority 2023, published 2024).
